Experimental data reported in ChEMBL document CHEMBL1126062, “Benzofuran bioisosteres of hallucinogenic tryptamines” (J Med Chem, 1992).

What was measured:
[1] = target: T1, 5-hydroxytryptamine receptor 1A (Rattus norvegicus, UniProt P19327); assay: Affinity on 5-hydroxytryptamine 1A receptor labeled by [3H]8-OH-DPAT
T1 sequence (P19327 whole entry): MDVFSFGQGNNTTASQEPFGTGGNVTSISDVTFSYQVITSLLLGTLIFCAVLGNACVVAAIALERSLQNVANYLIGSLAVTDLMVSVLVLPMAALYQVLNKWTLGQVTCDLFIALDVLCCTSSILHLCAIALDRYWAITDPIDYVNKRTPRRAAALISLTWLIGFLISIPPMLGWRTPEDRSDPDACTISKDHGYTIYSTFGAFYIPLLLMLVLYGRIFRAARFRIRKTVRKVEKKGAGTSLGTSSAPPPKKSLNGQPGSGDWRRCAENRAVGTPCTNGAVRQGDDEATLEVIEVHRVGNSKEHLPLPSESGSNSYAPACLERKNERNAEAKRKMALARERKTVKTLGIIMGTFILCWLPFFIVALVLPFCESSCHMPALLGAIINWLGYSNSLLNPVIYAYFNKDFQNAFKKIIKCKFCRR

[2] = target: Serotonin 2 (5-HT2) receptor (Rattus norvegicus, UniProt P30994+P08909+P14842); assay: Affinity on 5-hydroxytryptamine 2 receptor labeled by [125I]DOI; type: protein assay

| Compound | Ki [1] [nM] | Ki [2] [nM] |
| --- | --- | --- |
| COc1ccc2occ(CC(C)N)c2c1 (stereo in doubt; 4) | 779 | 27.1 |
| COc1ccc2occ(CCN(C)C)c2c1 | 101 | 95 |
| COc1ccc2[nH]cc(CCN(C)C)c2c1 [MEBUFOTENIN] | 69 | – |
| COc1ccc2occ(CC(C)N)c2c1 (racemic) | 445 | 42 |
